Source: ChEMBL document CHEMBL3853298, “Total synthesis and in vitro bioevaluation of clavaminols A, C, H & deacetyl clavaminol H as potential chemotherapeutic and antibiofilm agents” (Eur J Med Chem, 2016)

Legend:
Type in all cases: functional, cell-based
[1] = Cytotoxicity against human SKOV3 cells assessed as cell growth inhibition by MTT assay; conditions: SK-OV-3
[2] = Cytotoxicity against human DU145 cells assessed as cell growth inhibition by MTT assay; conditions: DU-145
[3] = Cytotoxicity against human MCF7 cells assessed as cell growth inhibition by MTT assay

COc1cccc2c1C(=O)c1c(O)c3c(c(O)c1C2=O)C[C@@](O)(C(=O)CO)C[C@@H]3O[C@H]1C[C@H](N)[C@H](O)[C@H](C)O1 [DOXORUBICIN]
IC50 [1]: 700 nM
IC50 [2]: 700 nM
IC50 [3]: 800 nM
